Test results from the supplement of paper PMC10307832.

Columns and labels:
Assay in all cases: relative viability (nuclei count vs DMSO), 5 days (fraction); higher = more cells survive
Seliciclib + Bortezomib = compound: CC[C@H](CO)Nc1nc(NCc2ccccc2)c2ncn(C(C)C)c2n1 [Seliciclib] + CC(C)C[C@H](NC(=O)[C@H](Cc1ccccc1)NC(=O)c1cnccn1)B(O)O [Bortezomib] (partner 0.002 µM)
Procedure, shortened: (§1)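 Dosing by pin tool came one day after lung cancer cell lines were seeded in 1536-well plates, using either one drug or a fixed anchor-drug dose plus five library-drug doses (not always all listed) in √10 steps. After 5 days, nuclei were counted on 4× images. Relative viability is treated-well nuclei count divided by vehicle-well nuclei count, and values are medians of duplicate plates.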

Seliciclib + Luminespib = compound: CC[C@H](CO)Nc1nc(NCc2ccccc2)c2ncn(C(C)C)c2n1 [Seliciclib] + CCNC(=O)c1noc(-c2cc(C(C)C)c(O)cc2O)c1-c1ccc(CN2CCOCC2)cc1 [Luminespib] (partner 0.01 µM)
Procedure, shortened: as §1

Seliciclib + Dasatinib = compound: CC[C@H](CO)Nc1nc(NCc2ccccc2)c2ncn(C(C)C)c2n1 [Seliciclib] + Cc1nc(Nc2ncc(C(=O)Nc3c(C)cccc3Cl)s2)cc(N2CCN(CCO)CC2)n1 [Dasatinib] (partner 0.075 µM)
Procedure, shortened: as §1

Seliciclib + Palbociclib = compound: CC[C@H](CO)Nc1nc(NCc2ccccc2)c2ncn(C(C)C)c2n1 [Seliciclib] + CC(=O)c1c(C)c2cnc(Nc3ccc(N4CCNCC4)cn3)nc2n(C2CCCC2)c1=O [Palbociclib] (partner 0.5 µM)
Procedure, shortened: as §1

Cell Line	relative viability (Seliciclib + Bortezomib; first compound 0.08 µM)	relative viability (Seliciclib + Bortezomib; first compound 0.253 µM)	relative viability (Seliciclib + Bortezomib; first compound 0.8 µM)	relative viability (Seliciclib + Bortezomib; first compound 2.53 µM)	relative viability (Seliciclib + Bortezomib; first compound 8 µM)	relative viability (Seliciclib + Luminespib; first compound 0.08 µM)	relative viability (Seliciclib + Luminespib; first compound 0.253 µM)	relative viability (Seliciclib + Luminespib; first compound 0.8 µM)	relative viability (Seliciclib + Luminespib; first compound 2.53 µM)	relative viability (Seliciclib + Luminespib; first compound 8 µM)	relative viability (Seliciclib + Dasatinib; first compound 0.08 µM)	relative viability (Seliciclib + Dasatinib; first compound 0.253 µM)	relative viability (Seliciclib + Dasatinib; first compound 0.8 µM)	relative viability (Seliciclib + Dasatinib; first compound 2.53 µM)	relative viability (Seliciclib + Dasatinib; first compound 8 µM)	relative viability (Seliciclib + Palbociclib; first compound 0.08 µM)	relative viability (Seliciclib + Palbociclib; first compound 0.253 µM)	relative viability (Seliciclib + Palbociclib; first compound 0.8 µM)	relative viability (Seliciclib + Palbociclib; first compound 2.53 µM)	relative viability (Seliciclib + Palbociclib; first compound 8 µM)
NCI-H661	0.778	0.871	0.675	0.79	0.58	0.9	1.07	0.853	0.809	0.756	0.832	1.03	0.9	0.739	0.547	0.396	0.401	0.359	0.286	0.292
NCI-H1993	1.12	0.878	0.936	0.784	0.924	0.879	0.733	0.875	0.674	0.612	0.589	0.478	0.521	0.508	0.435	0.699	0.567	0.533	0.547	0.423
NCI-H1437	0.436	0.524	0.47	0.422	0.39	0.999	1.2	1.05	1.05	0.809	0.465	0.438	0.323	0.233	0.335	0.323	0.324	0.298	0.221	0.223
UMC-11	0.715	0.932	0.831	0.827	0.529	0.963	0.78	1.09	1.06	0.829	0.517	0.52	0.491	0.507	0.458	0.317	0.27	0.325	0.312	0.303
201T	1.12	1.18	1.07	1.1	1.01	1.02	1.1	0.976	0.999	1.03	0.502	0.654	0.589	0.385	0.548	0.329	0.349	0.353	0.327	0.277
ChaGo-K-1	0.914	0.517	0.947	0.83	0.454	0.587	0.362	0.711	0.536	0.603	0.588	0.637	0.661	0.478	0.495	0.915	0.957	0.755	0.875	0.805
NCI-H1650	0.214	0.217	0.2	0.21	0.178	0.195	0.185	0.216	0.199	0.193	0.3	0.344	0.304	0.247	0.285	0.369	0.317	0.332	0.353	0.216
LOU-NH91	0.5	0.519	0.518	0.408	0.399	0.318	0.332	0.293	0.305	0.276	0.493	0.515	0.535	0.413	0.427	–	0.56	0.513	0.492	0.466
HOP-62	0.837	0.754	0.684	0.868	0.331	0.863	0.933	0.919	1	0.851	0.661	0.58	0.578	0.603	0.653	0.463	0.398	0.397	0.366	0.308
NCI-H1915	0.961	1.05	0.951	0.987	0.743	0.756	0.765	0.785	0.853	0.653	0.354	0.303	0.277	0.288	0.283	0.522	0.545	0.449	0.457	0.315
NCI-H3122	1.03	1.04	0.995	0.973	0.967	0.0896	–	0.1	0.0781	0.11	0.719	–	0.787	0.679	0.812	0.179	0.135	0.172	0.172	0.182
NCI-H1651	1	0.925	0.897	0.836	0.947	0.864	0.958	0.876	0.594	0.564	0.403	0.399	0.536	0.302	0.382	0.51	0.512	0.502	0.436	0.411
NCI-H838	0.82	0.879	0.762	0.727	0.487	0.356	0.27	0.332	0.28	0.344	0.341	0.198	0.26	0.218	0.303	0.216	0.257	0.211	0.169	0.197
SK-LU-1	1.07	1.23	1.3	1.08	0.771	0.204	0.209	0.207	0.187	0.21	0.173	0.184	0.183	0.142	0.141	0.408	0.389	0.403	0.346	0.313
NCI-H441	0.662	0.429	0.314	0.406	0.531	0.319	0.296	0.341	0.299	0.299	0.732	0.848	0.536	0.339	0.601	0.199	0.217	0.203	0.144	0.14
NCI-H650	0.764	0.813	1.15	–	0.682	0.807	0.757	0.921	0.727	0.709	0.447	0.387	0.596	0.262	0.39	0.357	0.264	0.402	0.248	0.234
NCI-H1792	1.03	0.96	0.898	0.904	0.884	0.43	0.464	0.364	–	0.35	0.754	0.788	0.766	–	0.743	0.655	0.717	0.613	–	0.566
NCI-H1355	1.16	1.1	1.23	1.03	1.11	0.722	0.638	0.643	0.713	0.684	0.755	0.585	0.683	0.544	0.686	0.374	0.331	0.364	0.371	0.341
SW 1573	0.923	0.876	1.02	1.02	0.868	0.727	0.431	0.219	0.197	0.243	0.608	0.525	0.524	0.35	0.301	0.332	0.315	0.368	0.361	0.292
NCI-H2347	1.22	0.927	0.908	–	0.847	0.428	0.328	0.512	0.412	0.721	0.323	0.35	0.209	0.248	0.302	0.44	0.439	0.404	0.406	0.433
LCLC-97TM1	0.816	0.767	0.646	0.163	0.195	0.843	0.81	0.449	0.684	0.469	0.758	0.965	0.732	0.333	0.704	0.219	0.242	0.186	0.184	0.108
EMC-BAC-2	1.05	0.91	1.11	0.836	1.07	1.15	1.02	1.15	1.16	1.11	0.305	0.288	0.399	0.218	0.277	0.516	0.474	0.543	0.423	0.455
NCI-H1975	0.372	0.348	0.345	0.322	0.218	0.2	0.124	0.19	0.198	0.479	0.409	0.374	0.424	0.326	0.314	0.619	0.342	0.55	0.389	0.339
BEN	0.871	–	0.82	0.701	0.659	0.344	0.439	0.662	0.259	0.251	0.311	0.313	0.375	0.271	0.322	0.476	0.469	0.473	0.499	0.453
NCI-H23	0.84	0.776	1.1	0.496	0.895	0.202	0.206	0.209	0.211	0.242	0.855	0.785	0.756	0.296	0.643	0.548	0.49	0.416	0.335	0.258
NCI-H520	0.521	0.507	0.581	0.679	0.429	0.234	–	0.175	0.315	0.205	0.167	–	0.258	0.219	0.178	0.237	0.187	0.17	0.189	0.203
CAL-12T	0.936	1.36	0.888	0.785	0.567	0.351	0.411	0.363	0.388	0.313	0.501	0.738	0.362	0.23	0.284	0.524	0.469	0.354	0.226	0.207
